In patent publication US20260374766A1, “METHODS FOR TREATING CANCER” (Antares Therapeutics, Inc., priority 2022, published 2026):
Read-outs that look alike come from different tables or passages of the source.

Columns and labels:
[1] = tested on: H1299 p53 R273H; experiment: Cell Proliferation Assay (CellTiter-Glo, CTG), H1299 p53 R273H (NClH1299-inducible p53 R273H); type: cell-based; conditions: Homo sapiens, NCI-H1299, 120 h, 5 days
How it was run: (§1)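 Tet-One inducible p53 Y220C or R273H constructs were stably introduced into NCI-H1299 by lentiviral transduction; NUGC3 was used as is. Cells (250-500 per well) were exposed to compound for 5 days, then CellTiter-Glo was added for 10 min at room temperature and IC50 was calculated from luminescence.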

[2] = target: T1, p53 Y220C mutant protein (amino acid residues 94-293) (Homo sapiens, UniProt P04637, Y220C); experiment: Surface Plasmon Resonance (SPR) assay, Kd_kinetic; type: binding; conditions: SPR, p53 Y220C, read-out: SPR P53 Y220C KD kinetic
T1 construct: p53 Y220C mutant protein (amino acid residues 94-293)
T1 sequence (P04637 94-293, stated change not applied): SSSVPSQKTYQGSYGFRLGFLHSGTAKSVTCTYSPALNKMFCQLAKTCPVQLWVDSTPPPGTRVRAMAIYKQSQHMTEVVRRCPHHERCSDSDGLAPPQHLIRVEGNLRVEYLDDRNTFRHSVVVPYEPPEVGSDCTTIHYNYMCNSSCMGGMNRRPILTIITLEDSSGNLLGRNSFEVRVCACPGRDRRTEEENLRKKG
How it was run: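 Kd values come from fitting sensorgrams to a 1:1 binding model. Sensorgrams were recorded on a Biacore 8K at 16 or 20 °C in pH 7.5 Tris buffer with 100 mM NaCl, 1 mM DTT, detergents and 1% DMSO.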

[3] = tested on: NUGC3 p53 Y220C; experiment: Cell Proliferation Assay (CellTiter-Glo, CTG), NUGC3 p53 Y220C; type: cell-based; conditions: Homo sapiens, NUGC-3, 120 h, 5 days
How it was run: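 NClH1299 lines stably transduced with Tet-inducible p53 Y220C or R273H, plus NUGC3, were treated with compound for 5 days at 250-500 cells/well. IC50 derived from CellTiter-Glo luminescent signal after 10 min room-temperature incubation.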

[4] = target: p53 Y220C (Homo sapiens, UniProt P04637, Y220C); experiment: Luciferase Reporter Assay (Luc), p53 response element, NClH1299 cells with inducible p53 Y220C; type: cell-based; conditions: 6 hour; for AC50: read-out: Luc P53 Y220C AC50
How it was run: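 Cells were seeded at 5,000 per well and induced with 0.5 ug/mL doxycycline for 24 hours, then exposed to compound for 6 hours. One-Glo reagent was added, plates shaken 5 minutes at room temperature, and luminescence read immediately.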

[5] = tested on: H1299 p53 Y220C; experiment: Cell Proliferation Assay (CellTiter-Glo, CTG), H1299 p53 Y220C (NClH1299-inducible p53 Y220C); type: cell-based; conditions: Homo sapiens, NCI-H1299, 120 h, 5 days
How it was run: as §1

[6] = NClH1299-inducible p53 R273H cells
[7] = AC50, NClH1299 cells with inducible p53 Y220C
[8] = Emax, NClH1299 cells with inducible p53 Y220C, 10 uM tool compound as positive control
[9] = NClH1299-inducible p53 Y220C cells
[10] = NClH1299-inducible p53 R273H cells, CellTiter-Glo
[11] = AC50, luciferase reporter, NClH1299 inducible p53 Y220C
[12] = Emax, luciferase reporter, NClH1299 inducible p53 Y220C
[13] = NClH1299-inducible p53 Y220C cells, CellTiter-Glo
[14] = luciferase reporter, NClH1299 inducible p53 Y220C, 10 uM tool compound as positive control
[15] = luciferase reporter, NClH1299 inducible p53 Y220C

Compound | IC50 [1, 6] | Kd [2] | IC50 ([3]; NUGC3 cells) | AC50 [4, 7] | Emax [4, 8] | IC50 [5, 9] | IC50 [1, 10] | IC50 ([3]; NUGC3 cells, CellTiter-Glo) | AC50 [4, 11] | Emax [4, 12] | IC50 [5, 13] | IC50 ([1]; CellTiter-Glo, H1299 p53 R273H) | Kd ([2]; kinetic KD) | IC50 ([3]; CellTiter-Glo, NUGC3 p53 Y220C) | Emax [4, 14] | AC50 [4, 15] | IC50 ([5]; CellTiter-Glo, H1299 p53 Y220C)
C[C@@H](O)CNC(=O)c1ccc(OC2COC2)c(NCC#Cc2cc3c(N[C@@H]4CCN(C)C[C@@H]4F)cccn3c2SC(F)(F)F)c1 [Example 486] | ≥ 10000 nM | < 10 nM | < 750 nM | < 750 nM | > 90% | < 750 nM |  |  |  |  |  |  |  |  |  |  | 
COc1ccc(C(N)=O)nc1NCC#Cc1nn2c(N[C@@H]3CCN(C)C[C@@H]3F)cccc2c1SC(F)(F)F [Example 235] |  | < 10 nM |  |  |  |  | ≥ 10000 nM | 1500 to 3000 nM | 750 to 1500 nM | 80 to 90% | 750 to 1500 nM |  |  |  |  |  | 
CN1CCO[C@@H](CNC(=O)c2ccc(NCC#Cc3cc4c(N[C@@H]5CCN(C)C[C@@H]5F)cccn4c3SC(F)(F)F)cc2)C1 [Example 380] |  | < 10 nM |  |  |  |  | 5000 to 8000 nM | < 750 nM | < 750 nM | 80 to 90% | < 750 nM |  |  |  |  |  | 
COc1cc([S@+](C)[O-])ccc1NCC#Cc1cc2c(N[C@@H]3CCN(C)C[C@@H]3F)cccn2c1SC(F)(F)F [Example 411] |  | < 10 nM |  |  |  |  | ≥ 10000 nM | < 750 nM | < 750 nM | > 90% | < 750 nM |  |  |  |  |  | 
CN1CC[C@@H](Nc2cccn3c(SC(F)(F)F)c(C#CCNc4ccc(C(=O)N5CC(C)(O)C5)cc4)cc23)[C@@H](F)C1 [Example 395] |  | < 10 nM |  |  |  |  | 5000 to 8000 nM | < 750 nM | < 750 nM | > 90% | < 750 nM |  |  |  |  |  | 
COc1cc(C(N)=O)ccc1NCC#Cc1cc2c(N[C@@H]3CCN(C)C[C@@H]3F)nccn2c1SC(F)(F)F [Example 299] |  | < 10 nM |  |  |  |  | ≥ 10000 nM | < 750 nM | < 750 nM | > 90% | < 750 nM |  |  |  |  |  | 
CN1CC[C@@H](Nc2cccn3c(SC(F)(F)F)c(C#CCNc4ccc(C(=O)N[C@H]5C[C@H](O)C5)cc4)cc23)[C@@H](F)C1 [Example 426] |  | < 10 nM |  |  |  |  | 8000 to 10000 nM | < 750 nM | < 750 nM | > 90% | < 750 nM |  |  |  |  |  | 
C[C@H](O)CNC(=O)c1ccc(NCC#Cc2cc3c(N[C@@H]4CCN(C)C[C@@H]4F)cccn3c2SC(F)(F)F)cc1 [Example 431] |  | < 10 nM |  |  |  |  | ≥ 10000 nM | < 750 nM | < 750 nM | > 90% | < 750 nM |  |  |  |  |  | 
CN1CC[C@@H](Nc2cccn3c(SC(F)(F)F)c(C#CCNc4ccc(C(=O)NCC5(O)CC5)cc4)cc23)[C@@H](F)C1 [Example 427] |  | < 10 nM |  |  |  |  | ≥ 10000 nM | < 750 nM | < 750 nM | > 90% | < 750 nM |  |  |  |  |  | 
CNC(=O)c1ccc(OC)c(NCC#Cc2nc3c(N[C@@H]4CNC[C@@H]4F)cccn3c2CC(F)(F)F)n1 [Example 263] |  | < 10 nM |  |  |  |  | ≥ 10000 nM | 750 to 1500 nM | > 3000 nM | 70 to 80% | 1500 to 3000 nM |  |  |  |  |  | 
COc1ccc(C(=O)N[C@H](C)[C@H](C)O)cc1NCC#Cc1cc2c(N[C@@H]3CCN(C)C[C@@H]3F)cccn2c1SC(F)(F)F [Example 468] | 8000 to 10000 nM | < 10 nM | < 750 nM | < 750 nM | > 90% | < 750 nM |  |  |  |  |  |  |  |  |  |  | 
COc1cc(C(=O)NCC2(O)CC2)ccc1NCC#Cc1cc2c(N[C@@H]3CCNC[C@@H]3F)cccn2c1SC(F)(F)F [Example 387] |  | < 10 nM |  |  |  |  | 5000 to 8000 nM | < 750 nM | < 750 nM | 80 to 90% | < 750 nM |  |  |  |  |  | 
COc1cc(P(C)(C)=O)cnc1NCC#Cc1cc2c(N[C@@H]3CCN(C)C[C@@H]3F)cccn2c1SC(F)(F)F [Example 402, 2-(3-{[5-(dimethylphosphoryl)-3-methoxypyridin-2-yl]amino}prop-1-yn-1-yl)-N-[(3S,4R)-3-fluoro-1-methylpiperidin-4-yl]-3-[(trifluoromethyl)sulfanyl]indolizin-8-amine] |  | < 10 nM |  |  |  |  | ≥ 10000 nM | < 750 nM | < 750 nM | 80 to 90% | < 750 nM |  |  |  |  |  | 
CNC(=O)c1ccc(NCC#Cc2cc3c(N[C@@H]4CCNC[C@@H]4F)cccn3c2SC(F)(F)F)c(OC2COC2)c1 [Example 435] |  | < 10 nM |  |  |  |  | ≥ 10000 nM | < 750 nM | < 750 nM | > 90% | < 750 nM |  |  |  |  |  | 
COc1ccc(C(=O)NCC2(O)CC2)cc1NCC#Cc1cc2c(N[C@@H]3CCN(C)C[C@@H]3F)cccn2c1SC(F)(F)F [Example 417] |  | < 10 nM |  |  |  |  | ≥ 10000 nM | < 750 nM | < 750 nM | > 90% | < 750 nM |  |  |  |  |  | 
CNC(=O)c1ccc(C#N)c(NCC#Cc2nc3c(N[C@@H]4CCN(C)C[C@@H]4F)cccn3c2SC(F)(F)F)c1 [Example 224] |  | < 10 nM |  |  |  |  | ≥ 10000 nM | < 750 nM | < 750 nM | > 90% | < 750 nM |  |  |  |  |  | 
C[C@@H](O)CNC(=O)c1ccc(NCC#Cc2cc3c(N[C@@H]4CCNC[C@@H]4F)cccn3c2SC(F)(F)F)cc1 [Example 397] |  | < 10 nM |  |  |  |  | 5000 to 8000 nM | < 750 nM | < 750 nM | > 90% | < 750 nM |  |  |  |  |  | 
CN1CC[C@@H](Nc2cccn3c(SC(F)(F)F)c(C#CCNc4ccc(C(=O)NC[C@@H]5CCO5)cc4)cc23)[C@@H](F)C1 [Example 453] |  | < 10 nM |  |  |  |  | ≥ 10000 nM | < 750 nM | < 750 nM | > 90% | < 750 nM |  |  |  |  |  | 
COc1ccc(C(=O)NCC(C)(C)O)cc1NCC#Cc1cc2c(N[C@@H]3CCN(C)C[C@@H]3F)cccn2c1SC(F)(F)F [Example 424] |  | < 10 nM |  |  |  |  | ≥ 10000 nM | < 750 nM | < 750 nM | > 90% | < 750 nM |  |  |  |  |  | 
CNC(=O)c1cc(OC)c(NCC#Cc2nc3c(N[C@@H]4CCN(C)C[C@@H]4F)cccn3c2SC(F)(F)F)cn1 [Example 120] |  |  |  |  |  |  |  |  |  |  |  | ≥ 10000 nM | < 10 nM | < 750 nM | 80 to 90% | < 750 nM | < 750 nM
CN1CC[C@@H](Nc2cccn3c(SC(F)(F)F)c(C#CCNc4ccc(C(=O)NCC5COC5)cc4)cc23)[C@@H](F)C1 [Example 447] |  | < 10 nM |  |  |  |  | ≥ 10000 nM | < 750 nM | < 750 nM | > 90% | < 750 nM |  |  |  |  |  | 
CNC(=O)c1ccc(OC)c(NCC#Cc2cc3c(N[C@@H]4CN(C)C[C@@H]4F)nccn3c2SC(F)(F)F)c1 [Example 208] |  |  |  |  |  |  |  |  |  |  |  | ≥ 10000 nM | < 10 nM | < 750 nM | > 90% | < 750 nM | < 750 nM
CNC(=O)c1ccc(NCC#Cc2nn3c(N[C@@H]4CCNC[C@@H]4F)cccc3c2SC(F)(F)F)c(OC)c1 [Example 272] |  | < 10 nM |  |  |  |  | 5000 to 8000 nM | 750 to 1500 nM | < 750 nM | 80 to 90% | < 750 nM |  |  |  |  |  | 
